Laboratory results as given in patent US12565504B2, “Spirocyclic O-glycoprotein-2-acetamido-2-deoxy-3-d-glucopyranosidase inhibitors” (BIOGEN MA INC., priority 2019, dated 2026).

Legend:
[1] = molecular target: OGA (S400 O-GLCNAC) (Homo sapiens (Human), UniProt O60502); test: Cellular OGA-Tau MSD Assay; format: cell-based; details: HEK-293T cells transfected with OGT and Tau-V5; Tau-S400-GlcNAc MSD readout
Description: HEK-293T cells were transfected with OGT and Tau-V5 plasmids using Lipofectamine and grown overnight. Next day, the cells were collected and re-plated at 1×10^5 cells per well in 96 well plates. Cells were incubated for 4 hr at 37° C., before compounds were added at 1 uM, with 3-fold dilutions in a 10-point titration. Cell plates were incubated with compounds overnight at 37° C. The next day media was removed from wells by gentle aspiration and 120 ul of 1× Cell Lysis buffer mixed with protease and phosphatase cocktail added to each well. A freeze thaw was performed at −80° C., then mixed before transferring 50 μl to MSD plates coated with V5-tag antibody to capture Tau. MSD Plates were incubated overnight at 4° C., on a plate shaker. The following day, plates were washed and incubated with Tau-S400-GlcNAc antibody for 2 hr and then developed with rabbit Sulfo-tag antibody. Final read out was carried out on an MSD 600 reader. The data was analyzed using Graph Pad or Genedata, the data was normalized and % activity versus log of compound concentration was plotted. The ICso values were obtained from a 4 parameter fit.

[2] = molecular target: Recombinant full length human OGA enzyme (Homo sapiens (Human), UniProt O60502); test: OGA Enzyme Inhibition Biochemical Assay; details: 1 nM OGA, 100 μM 4-MUGlcNAc, 90 minutes, pH 6.4
Sequence of Recombinant full length human OGA enzyme (O60502 whole entry): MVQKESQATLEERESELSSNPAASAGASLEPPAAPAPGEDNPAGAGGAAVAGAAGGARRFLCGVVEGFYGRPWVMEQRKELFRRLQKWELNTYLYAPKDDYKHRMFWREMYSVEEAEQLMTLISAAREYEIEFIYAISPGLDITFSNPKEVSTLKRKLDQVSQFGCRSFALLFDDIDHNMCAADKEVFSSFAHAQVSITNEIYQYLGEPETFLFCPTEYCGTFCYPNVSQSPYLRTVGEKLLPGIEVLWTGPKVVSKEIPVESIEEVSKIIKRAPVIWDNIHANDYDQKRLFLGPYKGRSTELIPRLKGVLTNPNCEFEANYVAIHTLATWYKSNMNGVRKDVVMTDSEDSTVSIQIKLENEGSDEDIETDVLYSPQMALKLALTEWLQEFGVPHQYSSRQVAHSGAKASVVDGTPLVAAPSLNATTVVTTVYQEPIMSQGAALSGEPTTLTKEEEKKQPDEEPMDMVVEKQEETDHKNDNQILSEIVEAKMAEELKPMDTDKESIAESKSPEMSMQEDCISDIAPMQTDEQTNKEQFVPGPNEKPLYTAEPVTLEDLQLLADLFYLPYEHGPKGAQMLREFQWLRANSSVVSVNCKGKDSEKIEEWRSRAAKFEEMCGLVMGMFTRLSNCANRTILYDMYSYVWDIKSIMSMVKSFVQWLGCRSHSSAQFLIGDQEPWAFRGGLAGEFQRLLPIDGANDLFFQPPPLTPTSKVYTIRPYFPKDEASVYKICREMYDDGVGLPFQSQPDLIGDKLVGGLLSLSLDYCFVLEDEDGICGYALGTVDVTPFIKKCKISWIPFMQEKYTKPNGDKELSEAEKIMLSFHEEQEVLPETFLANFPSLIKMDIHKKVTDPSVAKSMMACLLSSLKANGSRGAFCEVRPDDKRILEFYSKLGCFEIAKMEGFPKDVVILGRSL
Description: Recombinant full length human OGA enzyme was purchased from Origene. 4-MUGlcNAc substrate was purchased from Sigma. All other reagents were purchased from Sigma or Fisher. Assay buffer consists of the McIlvaine buffer system, pH 6.4 (0.2M Na2HPO4 mixed with 0.1M citric acid) and 0.01% BSA. […] Reactions were incubated for 90 minutes at room temperature and quenched with 40 μl of 3M glycine, pH 10 and read on a Perkin Elmer Envision plate reader (Ex: 355 nm/Em: 460 nm). Compounds were tested with a 10-point dose-response starting from 20 μM with a 4-fold dilution. Data was fit using GraphPad Prism using a 4-parameter fit with variable slope.

Sequence of OGA (S400 O-GLCNAC) (O60502 whole entry): as above

Row | SMILES | IC50 [1] [nM] | IC50 [2] [nM]
1 | CC(=O)Nc1nc(F)c(CN2CCCC3(C2)OCc2cncnc23)s1 (stereo not shown) [Example 88, N-(5-((5H-Spiro[furo[3,4-d]pyrimidine-7,3′-piperidin]-1′-yl)methyl)-4-fluorothiazol-2-yl)acetamide] | 90.3 | 20.8
2 | CC(=O)Nc1ncc(CN2C[C@@]3(Cc4cc(N5CCN(C)CC5)ncc4O3)C[C@@H]2C)s1 [Example 44, N-(5-(((2R,5′S)-5′-Methyl-5-(4-methylpiperazin-1-yl)-3H-spiro[furo[2,3-c]pyridine-2,3′-pyrrolidin]-1′-yl)methyl)thiazol-2-yl)acetamide] | 13 | < 1
3 | CC(=O)Nc1nc(F)c(CN2CCC[C@]3(C2)OCc2cnccc23)s1 (single isomer, unassigned) [Example 70-b] | > 1000 | 850
4 | CCOc1cc2c(cn1)O[C@]1(C2)C[C@H](C)N(Cc2sc(NC(C)=O)nc2F)C1 [Example 46, N-(5-(((2R,5′S)-5-Ethoxy-5′-methyl-3H-spiro[furo[2,3-c]pyridine-2,3′-pyrrolidin]-1′-yl)methyl)-4-fluorothiazol-2-yl)acetamide] | 3 | < 1
5 | CC(=O)Nc1ncc(CN2C[C@@]3(Cc4cc(C5CC5)ncc4O3)C[C@@H]2C)s1 [Example 25, N-(5-(((2R,5′S)-5-Cyclopropyl-5′-methyl-3H-spiro[furo[2,3-c]pyridine-2,3′-pyrrolidin]-1′-yl)methyl)thiazol-2-yl)acetamide] | 23 | 6
6 | CC(=O)Nc1ncc(CN2CCCC3(C2)OCc2c3cc[nH]c2=O)s1 (stereo not shown) [Example 87, N-(5-((4-Oxo-4,5-dihydro-3H-spiro[furo[3,4-c]pyridine-1,3′-piperidin]-1′-yl)methyl)thiazol-2-yl)acetamide] | 54.3 | 35
7 | COCCN(C)c1cc2c(cn1)O[C@]1(C2)C[C@H](C)N(Cc2cnc(NC(C)=O)s2)C1 [Example 32, N-(5-(((2R,5′S)-5-((2-Methoxyethyl)(methyl)amino)-5′-methyl-3H-spiro[furo[2,3-c]pyridine-2,3′-pyrrolidin]-1′-yl)methyl)thiazol-2-yl)acetamide] | 7 | < 1
8 | CC(=O)Nc1nc(F)c(CN2C[C@@]3(Cc4cc(C)ncc4O3)C[C@@H]2C)s1 [Example 23, N-(5-(((2R,5′S)-5,5′-Dimethyl-3H-spiro[furo[2,3-c]pyridine-2,3′-pyrrolidin]-1′-yl)methyl)-4-fluorothiazol-2-yl)acetamide] | 13 | 1
9 | COc1cc2c(cn1)O[C@]1(C2)C[C@H](C)N(Cc2sc(NC(C)=O)nc2F)C1 [Example 16, N-(4-Fluoro-5-(((2R,5′S)-5-methoxy-5′-methyl-3H-spiro[furo[2,3-c]pyridine-2,3′-pyrrolidin]-1′-yl)methyl)thiazol-2-yl)acetamide] | 2 | < 1
10 | CC(=O)Nc1nc(F)c(CN2CCCC3(C2)OCc2cnccc23)s1 (racemic) [Example 69, N-(5-((3H-Spiro[furo[3,4-c]pyridine-1,3′-piperidin]-1′-yl)methyl)-4-fluorothiazol-2-yl)acetamide] | 13.8 | 3.2
11 | CC(=O)Nc1ncc(CN2CC3(C[C@@H]2C)OCc2cccnc23)s1 (stereo partly drawn) [Example 62, N-(5-(((5′S)-5′-Methyl-5H-spiro[furo[3,4-b]pyridine-7,3′-pyrrolidin]-1′-yl)methyl)thiazol-2-yl)acetamide] | 73 | 44
12 | CC(=O)Nc1ncc(CN2CC3(CCC2C)OCc2ccccc23)s1 (stereo not shown) [Example 60, N-(5-((6′-Methyl-3H-spiro[isobenzofuran-1,3′-piperidin]-1′-yl)methyl)thiazol-2-yl)acetamide] | > 1000 | 1700
13 | CC(=O)Nc1ncc(CN2CCCC3(C2)OCc2cncnc23)s1 (stereo not shown) [Example 89, N-(5-((5H-Spiro[furo[3,4-d]pyrimidine-7,3′-piperidin]-1′-yl)methyl)thiazol-2-yl)acetamide] | 84.6 | 67.9
14 | CC(=O)Nc1ncc(CN2CCC3(C2)OCc2cnccc23)s1 (stereo not shown) [Example 66, N-(5-((3H-Spiro[furo[3,4-c]pyridine-1,3′-pyrrolidin]-1′-yl)methyl)thiazol-2-yl)acetamide] | 794 | 210
15 | COc1nccc2c1C[C@]1(C[C@H](C)N(Cc3sc(NC(C)=O)nc3F)C1)O2 [Example 18, N-(4-Fluoro-5-(((2R,5′S)-4-methoxy-5′-methyl-3H-spiro[furo[3,2-c]pyridine-2,3′-pyrrolidin]-1′-yl)methyl)thiazol-2-yl)acetamide] | 4 | 2
16 | CC(=O)Nc1ncc(CN2CCC3(Cc4cnccc4O3)C2)s1 (stereo not shown) [Example 13, N-(5-((3H-Spiro[furo[3,2-c]pyridine-2,3′-pyrrolidin]-1′-yl)methyl)thiazol-2-yl)acetamide] | 796 | 130
17 | CC(=O)Nc1nc(F)c(CN2CCC3(Cc4cnccc4O3)C2)s1 (stereo not shown) [Example 12, N-(5-((3H-Spiro[furo[3,2-c]pyridine-2,3′-pyrrolidin]-1′-yl)methyl)-4-fluorothiazol-2-yl)acetamide] | 93 | 35
18 | CC(=O)Nc1nc(F)c(CN2C[C@@]3(Cc4cc(C(F)(F)F)ncc4O3)C[C@@H]2C)s1 [Example 21, N-(4-Fluoro-5-(((2R,5′S)-5′-methyl-5-(trifluoromethyl)-3H-spiro[furo[2,3-c]pyridine-2,3′-pyrrolidin]-1′-yl)methyl)thiazol-2-yl)acetamide] | 6 | 7

Now from value to molecule:

Row | IC50 [1] [nM] | IC50 [2] [nM] | SMILES
19 | 17 | 4.5 | CC(=O)Nc1ncc(CN2CCCC3(C2)OCc2c3ccnc2Cl)s1 (stereo not shown) [Example 85, N-(5-((4-Chloro-3H-spiro[furo[3,4-c]pyridine-1,3′-piperidin]-1′-yl)methyl)thiazol-2-yl)acetamide]
20 | 18.3 | 5.9 | CC(=O)Nc1nc(F)c(CN2CCCC3(C2)OCc2c3ccnc2Cl)s1 (racemic) [Example 83, N-(5-((4-Chloro-3H-spiro[furo[3,4-c]pyridine-1,3′-piperidin]-1′-yl)methyl)-4-fluorothiazol-2-yl)acetamide]
21 | > 1000 | 310 | CC(=O)Nc1nc(F)c(CN2CCC[C@]3(C2)OCc2c3ccnc2Cl)s1 [Example 84-b, (S)—N-(5-((4-chloro-3H-spiro[furo[3,4-c]pyridine-1,3′-piperidin]-1′-yl)methyl)-4-fluorothiazol-2-yl)acetamide]
22 | 1 | < 1 | CC(=O)Nc1nc(F)c(CN2C[C@@]3(Cc4cc(N(C)C)ncc4O3)C[C@@H]2C)s1 [Example 28, N-(5-(((2R,5′S)-5-(Dimethylamino)-5′-methyl-3H-spiro[furo[2,3-c]pyridine-2,3′-pyrrolidin]-1′-yl)methyl)-4-fluorothiazol-2-yl)acetamide]
23 | 865 | 15 | CC(=O)Nc1nc(F)c(CN2C[C@@]3(Cc4ccccc4O3)C[C@@H]2C)s1 [Example 1, N-(4-Fluoro-5-(((2R,5′S)-5′-methyl-3H-spiro[benzofuran-2,3′-pyrrolidin]-1′-yl)methyl)thiazol-2-yl)acetamide]
24 | 9 | < 1 | CC(=O)Nc1ncc(CN2C[C@@]3(Cc4cc(N5CCOCC5)ncc4O3)C[C@@H]2C)s1 [Example 37, N-(5-(((2R,5′S)-5′-Methyl-5-morpholino-3H-spiro[furo[2,3-c]pyridine-2,3′-pyrrolidin]-1′-yl)methyl)thiazol-2-yl)acetamide]
25 | 8.4 | 1.4 | CC(=O)Nc1nc(F)c(CN2CCC[C@@]3(C2)OCc2cnccc23)s1 (single isomer, unassigned) [Example 70-a]
26 | 12 | 1 | CC(=O)Nc1nc(F)c(CN2C[C@@]3(Cc4ccncc4O3)C[C@@H]2C)s1 [Example 9, N-(4-Fluoro-5-(((2R,5′S)-5′-methyl-3H-spiro[furo[2,3-c]pyridine-2,3′-pyrrolidin]-1′-yl)methyl)thiazol-2-yl)acetamide]
